One data set deals with Fe-starved rats. Nature of the data set: Effect of Fe-supplying agents on the absorption of Fe in Fe-starved rats. Here is the method:
3-week old Sprague-Dawley male rats (Daehan Biolink Co., Ltd., Korea) were employed for the present experiment after application of an elementary diet for one week. These rats were divided into a normal group and an experimental group. The diet for the normal group (“normal diet”) was prepared based upon AIN-76 diet composition, whereas the diet for the experimental group (“Fe-free diet” or “experimental diet”) was prepared by replacing a mineral mixture in the normal diet composition with a Fe-deficient mineral mixture. […] These Fe-supplying agents were orally administered to rats along with the experimental diet for one week before the rats were sacrificed.
The concentration of Fe-supplying agent for the oral administration was 10 times the recommended amount for adult males. 3× distilled water was used for preparation of the experimental diet and was fed to rats for maintenance. The compositions of diets administered to the normal group and experimental group, respectively, are described in TABLE 14 below.
Rats were adapted to a cage for one week before the start of the experiment, and their feces were collected for a final 3 days. On the final day, the abdomen was cut open under ether anesthesia, then blood was harvested from abdominal aorta, and major organs such as liver, kidney, spleen, etc. were extracted. […] Each organ was trimmed and washed with normal saline, then moisture on the surface thereof was removed to measure the weight and length.
CBC (Complete Blood Count: Red blood cell; RBC, white blood cell; WBC, Hematocrits; HCT, Hemoglobin; Hb) was measured from the anticoagulated blood, and IRON and TIBC Total Iron Binding Capacity) were measured from the blood serum. CBC was measured by an automatic analyzer (ADVIA 120, Bayer, U.S.A). As reagents, Isoton III (Beckman Coulter, U.S.A), Coulter clenz (Beckman Coulter), Lyse S III (Beckman Coulter), 4% sodium hypochloride-solution (Beckman Coulter) and 4C-plus (Beckman Coulter), Scatter Pak (Beckman Coulter) were used.
All data obtained in the present experiment were expressed with the mean standard error using the SAS program. T-test in each group was carried out at a range of P<0.05 by Duncan's multiple comparison test.

A further data set relates to calcium-starved rats. The experiment in a line: Test of the degree of absorption of Ca-supplying agents in calcium-starved rats. The following applies: for Length of fibula / Weight of fibula: Ca-starved rats, Ca-supplying agent orally for one week with Ca-free diet. As for the experimental part:
3-week old Sprague-Dawley male rats (Daehan Biolink Co., Ltd., Korea) were employed for the present experiment after adjustment to an elementary diet These rats were divided into a normal group and an experimental group. The diet for the normal group (“normal diet”) was prepared based upon AIN-76 diet composition, whereas the diet for the experimental group (“Ca-flee diet” or “experimental diet”) was prepared by replacing a mineral mixture in the normal diet composition with a Ca deficient mineral mixture. […] These Ca-supplying agents were orally administered to each group along with the Ca-free diet for one week before the rats were sacrificed.
The concentration of Ca-supplying agent in the oral administration was ⅓ of the concentration of calcium in AIN-76 mineral mixture, which corresponds to 10 times the recommended amount for adult males. 3× distilled water was used for preparation of the experimental diet and was also was fed to rats for maintenance. The compositions of diets administered to the normal group and experimental groups, respectively, are described in TABLE 8 as below.
The abdomens of the rats were cut open under ether anesthesia, then blood was harvested from abdominal aorta, and major organs such as liver, kidney, spleen, etc. were […], followed by the extraction of fibula. The blood was centrifuged at 3000 rpm for 10 minutes to separate serum. Each organ and bone was trimmed and washed with normal saline and moisture on the surface thereof was removed to measure the weight and length thereof.
The content of calcium in serum and urine was measured by Calcium Reagent Arsenazo III kit (Sigma Corp., U.S.A). In order to measure the content of calcium in feces, the feces (sample) was put in a Pyrex beaker and the weight thereof was measured to 0.1 mg unit, then 5 ml of HNO3 and 2 ml of H2O2 were added and the beaker was left uncovered on a hot plate. The acid-digested sample was cooled and 2 ml of H2O2 was added thereto, followed by heating. Next, the acid was sufficiently volatilized to make the concentration of HNO3 to 1-5%, followed by the analysis with ICP-AES (inductively Coupled Plasma Atomic Emission Spectrometer). The condition for analysis is given below. • Model: Jobin Yvon 138 Ultrace • Source: Argon plasma (6000 K) • Spectral range: 160-800 nm • Resolution: 0.005 nm (UV) • Detection limit: 1×ppb˜100×ppb • Wavelength for analysis: 393.366 nm 3. Effect On Weight of Major Organs

Data set [1] in a line: Stability of amino acid chelate on storage in aqueous solutions. The class given is physicochemical. To be noted: distilled water and buffer at pH 3, 5, 7, 9, commercial beverages, cosmetics, ALGI; stored at 4, 25 and 50° C. for 3 months. Here is the method:
The following experiment was carried out to ascertain the stability of amino acid chelate compound, obtained in EXAMPLE 1, on its storage in an aqueous solution for a long time.
• 1) preparation of samples by adding the above amino acid chelate compound into distilled water adjusted to pH 3, 5, 7 and 9, respectively. • 2) preparation of samples by adding the above amino acid chelate compound into solutions adjusted to pH 3, 5, 7 and 9 using buffer, respectively. • 3) preparation of samples by adding the above amino acid chelate compound into selected commercially available beverages (MIEROFIBER® (Hyundai Pharm., Korea), BACCHUS® (Donga Pharm., Korea) and orange juice (HaeTae Beverage Corp., Korea)), respectively. • 4) preparation of samples by adding the above amino acid chelate compound into selected commercially available cosmetics (ISA KNOX® (LG Chemical Corp., Korea), MAMONDE® (AmorePacific Corp., Korea)) • 5) preparation of samples by adding the above amino acid chelate compound into ALGI® (GG Tech. Co. Ltd., Korea) as a plant growth-accelerating agent
The above samples were stored at 4, 25 and 50° C., respectively, and then tested for any precipitation or change in pH. […]

Where [2] appears, read: Fe-starved rats, oral for one week.

As to iron-aspartic acid chelate [Fe-Asp], in the data set on Fe-starved rats (setting [2]), the RBC is listed as 7.32 ± 0.35 ×10^6/mm^3, the “TIBC (total iron binding capacity) in serum” value came out at 735.44 ± 9.30 µg/dL and the WBC was 6.02 ± 0.46 ×10^3/mm^3.
For calcium-aspartic acid chelate [Asp-Ca], in the data set on calcium-starved rats, the Length of fibula worked out at 30.88 ± 1.87 mm and the Weight of fibula is on record as 0.327 ± 0.031 g.
In the case of Heme iron, in the data set on Fe-starved rats (setting [2]), the HCT came out at 36.11 ± 0.89%, the RBC is listed as 7.01 ± 0.16 ×10^6/mm^3, the “TIBC (total iron binding capacity) in serum” value came to 824.63 ± 11.60 µg/dL and the “TS (transferrin saturation)” value worked out at 17.07%. In addition, in the data set on Fe-starved rats (setting [2]), the WBC is reported as 6.12 ± 0.37 ×10^3/mm^3. For the same compound, in the data set with Fe-starved rats (rat, in vivo, po), the IRON in serum is reported as 140.8. ± 25.55 μg/dl, the Kidney weight came to 7.20 ± 0.13 mg/BW and the Spleen weight is listed as 2.78 ± 0.15 mg/BW.
“Seaweed Calcium-Glutamic Acid Chelate [EXAMPLE 1]”: the “precipitation or change in pH” value in data set [1] was “no precipitation or remarkable change in pH”.
On to seaweed calcium [SW-Ca], for which, in the data set with calcium-starved rats (rat, in vivo, po), the “Concentration of calcium in serum” value is 10.44 ± 0.07 mg/dL, the “Concentration of calcium in urine” value was 0.32 ± 0.02 mg/dL, the Kidney weight was determined as 8.20 ± 0.20 mg/BW and the Spleen weight is 3.00 ± 0.32 mg/BW.
Turning to `O=C([O-])[O-].[Ca+2]` [CaCO3], in the data set on calcium-starved rats, the Length of fibula is recorded as 30.03 ± 1.10 mm and the Weight of fibula amounted to 0.332 ± 0.033 g. Further, in the data set on calcium-starved rats (rat, in vivo, po), the “Concentration of calcium in serum” value was 9.13 ± 0.21 mg/dL, the “Concentration of calcium in urine” value was 0.22 ± 0.01 mg/dL, the “Concentration of serum-calcium in blood collected from eyeball” value was 8.52 ± 0.27 mg/dL and the Kidney weight was 8.60 ± 0.40 mg/BW. Further, in the data set with calcium-starved rats (rat, in vivo, po), the Spleen weight came out at 3.00 ± 0.00 mg/BW.

The values above are taken from patent US7375243B2, “Method for preparation of amino acid chelate” (MD Bioalpha Co., Ltd., priority 2002, dated 2008).
